The conditions of series [1]: in adults; cited from earlier work.
In series [2] the test system is HT-29 xenografts (human CRC tumor cell line). The series can be described thus: in vivo tumor xenograft experiment, subcutaneous HT-29 xenografts (Example A). Conditions: nude mice, suboptimal doses, 28 days of treatment. As to the method:
In order to analyse the anti-tumor effects of combining the inhibition of tumor angiogenesis by interfering with the VEGFR, FGFR and PDGFR signalling cascades with the established anti-proliferative treatment modality of capecitabine (Xeloda®) in a xenograft model of CRC the following in vivo experiment is performed. Nude mice carrying established subcutaneous HT-29 xenografts (human CRC tumor cell line) are randomized and treated with either nintedanib or capecitabine alone or with the combination of both drugs. After 28 days of treatment the tumors on the control treated mice reach the endpoint and are in average […] in volume. […] TGI = (1−(Xtreated,final−Xtreated,day1)/(Xcontrol,final−Xcontrol,day1))*100% [formula] where X = mean tumor weigh, final is day 28
The weight gain of the mice in the treatment groups in comparison to the weight of the control mice is reduced, but nevertheless well tolerated.

The test system of a further series is Rip-Tag. Put plainly: in vivo anti-tumor efficacy, Rip-Tag murine transgenic pancreas model.
A further series deals with GS-9L. The series can be described thus: in vivo anti-tumor efficacy, GS-9L syngeneic rat tumor model. To be noted: Glioblastoma, 50mg/kg/d.
For the next series, the system named is HT-29. Put plainly: in vivo anti-tumor efficacy, HT-29 xenograft model. Conditions: Colorectal, HT-29, 100mg/kg/d.
A further series has as its system PAC-120. The series can be described thus: in vivo anti-tumor efficacy, PAC-120 xenograft model. To be noted: Prostate (hormone-dependent), PAC-120, 100mg/kg/d.
The subject of a further series is HT-29 large tumors. The series can be described thus: in vivo anti-tumor efficacy, HT-29 large tumors xenograft model. To be noted: Colorectal.
The next series relates to Caki-1. The series can be described thus: in vivo anti-tumor efficacy, Caki-1 xenograft model. Conditions: Renal, Caki-1, 100mg/kg/d.
For another series, the system named is NCI-H460. The series can be described thus: in vivo anti-tumor efficacy, NCI-H460 xenograft model. To be noted: Lung (non-small-cell), NCI-H460, 25mg/kg/d.
The test system of a further series is Calu-6. The series can be described thus: in vivo anti-tumor efficacy, Calu-6 xenograft model. Conditions: Lung (non-small-cell), Calu-6, 50mg/kg/d.
The subject of a further series is SKOV3. Put plainly: in vivo anti-tumor efficacy, SKOV3 xenograft model. Conditions: Ovarian, SKOV3, 50mg/kg/d.
A further series deals with FaDu. The series can be described thus: in vivo anti-tumor efficacy, FaDu xenograft model. To be noted: Head and neck, 100mg/kg/d.

For the compound `CCCCCOC(=O)Nc1nc(=O)n([C@@H]2O[C@H](C)[C@@H](O)[C@H]2O)cc1F` [capecitabine, 5'-deoxy-5-fluoro-N-[(pentyloxy)carbonyl]-cytidine], in series [1], the AUC is 5960 ng·h/mL, the Cmax is 3900 ng/mL and the bioavailability result is listed as “≈ 100%”. The TGI value in [2] was 50%.
`COC(=O)c1ccc2c(c1)NC(=O)/C2=C(\Nc1ccc(N(C)C(=O)CN2CCN(C)CC2)cc1)c1ccccc1` [nintedanib, 3-Z-[1-(4-(N-((4-methyl-piperazin-1-yl)-methylcarbonyl)-N-methyl-amino)-anilino)-1-phenyl-methylene]-6-methoxycarbonyl-2-indolinone]: the Efficacy result is on record as “interference with tumor formation” in the series on Rip-Tag and “tumor volume reduction” in the series on HT-29 large tumors. In addition, the T/C entry in the series with GS-9L was “T/C 32% @ 50mg/kg/d”; with HT-29 it was “T/C 16% @ 100mg/kg/d”; in the series with PAC-120 it was “T/C 34% @ 100mg/kg/d”; in the series with Caki-1 it was “T/C 13% @ 100mg/kg/d”; in the series with NCI-H460, “T/C 54% @ 25mg/kg/d”; in the series with Calu-6, “T/C 24% @ 50mg/kg/d”. Also, the T/C entry in the series with SKOV3 was “T/C 19% @ 50mg/kg/d”; in the series on FaDu, “T/C 11% @ 100mg/kg/d”. Further, the TGI value in [2] is 35%.
